What is called inhibition is the relative decrease from the control value, in per cent. By IC50 is commonly meant the point on the concentration scale where inhibition reaches its midpoint.

The subject of data set [1] is RT-112 bladder cancer cells. Nature of the data set: Cell viability assay (CellTiter Glo), RT-112. In kind it is cell-based. Here is the method: (§1) Pancreatic cancer cell lines (MIA PaCa-2 and CAPAN-2) were purchased from ATCC. MIA PaCa-2 were grown in DMEM and CAPAN-2 in McCoy's 5A (Gibco). Colon cancer cell lines (SW480 and HT-29) were purchased from ATCC. SW480 were grown in Leibovitz's L-15 (ATCC) and HT-29 in McCoy's 5A (Gibco). Lung cancer cell lines (NCI 460 and NCI 1975) were purchased from ATCC and grown in RPMI 1640 (Gibco). PC-3 prostate cancer cell line was purchased from ATCC and grown in F-12K (ATCC). Bladder cancer cell line 5637 was purchased from ATCC and RT-112 was purchased from Sigma-Aldrich and was grown in RPMI 1640 (Gibco). Bladder cancer cell lines, UMUC-9, UMUC-15 and UMUC-7 were purchased from MD Anderson and were grown in EMEM (ATCC). Bladder cancer cell line J82 was purchased from ATCC and was grown in EMEM (ATCC). SW1710 and EJ28 bladder cancer cell lines were purchased from DSMZ and were grown in DMEM (ATCC) and RPMI-1640 (Gibco), respectively. Bladder cancer cell line T24 was purchased from ATCC and grown in McCoy's 5A (Gibco). Bladder cancer cell line BC-3C was purchased from DSMZ and was grown in McCoy's 5A (Gibco). All media were supplemented with 10% FBS (Gemini Bioproducts) and 1% Antibiotic-Antimycotic (Gibco). In the case of MIA PaCa-2, medium was also supplemented with 2.5% horse serum (Gibco). NCM356 colon epithelial cell lines were growth in M3:10 (INCELL, San Antonio, Tex.). A CMV-driven-HDAC9 vector was used to overexpress HDAC9 levels in NCM356 cells. IL1B and TNFA mRNA levels were measured by qPCR analysis as described previously (Fang K et al. Am J Pathol, 188(3):586-99, 2018).
(§2) 1.8×10^3 cells/well were plated in quadruplicates in 96-well plate and treated with exogenously added MJK analogues 6 hours after plating. For the experiments performed to calculate the IC50s of HDAC9 analogues, a secondary treatment of exogenously added MJK analogues was performed 2 days later. Cell growth was assessed 1, 3, 5 or 7 days after plating using the CellTiter Glo Luminescence Cell Viability Assay (Promega) according to manufacturer's protocol. For the experiments where the effect of combinatorial treatment of MJK-004 analogues with chemotherapy was assessed, treatment of cells with gemcitabine (10 nM) or 5-fluouracil (2000 nM) was performed one day after MJK-004 treatment and the cells were further treated with exogenously added MJK analogues 2 days later. Cell growth was assessed 3, 4, 5 or 6 days after plating using the CellTiter Glo Luminescence Cell Viability Assay (Promega) according to manufacturer's protocol. Data are expressed as mean […] (arbitrary units)±S.D.
(§3) Cell Viability Assays were employed to determine the concentration of MJK analogues where the response is reduced by half. For each treatment of cancer cells, 1, 2, 5, 10 and 20 μM of MJK analogues were applied. GraphPad Prism 7 software was used to fit dose response curves. Relative Luciferase Activity Units were plotted against the log values of the doses used and the nonlinear regression model was used for data analysis.
MJK-001 effects on a cancer cell line panel: The effects of MJK-001 (20 uM) on cancer cell growth was evaluated in 9 cancer cell lines, consisting of bladder, colon, lung, prostate and pancreatic cancer cell lines. Cell growth was measured on day 5. Bladder cancer cell lines (RT-112, 5637) were more responsive to MJK-001 treatment, followed by the colon and pancreatic cancer cell lines shown in Table 3.

For data set [2], the system named is IL1B and TNFA mRNA levels in HDAC9-overexpressing NCM356 cells. In words: IL1B and TNFA mRNA (qPCR) in HDAC9-overexpressing NCM356 colonocytes. In kind it is cell-based.
Data set [3] deals with bladder cancer cells. Nature of the data set: Bladder cancer cell growth, overall finding. Type of data set: cell-based. The following applies: in words. Here is the method:
as §2, §3
MJK-004 efficacy on bladder cancer cell growth and colony-formation ability: Based on the above findings, the MJK compounds were examined to determine if they had substantially better efficacy than MJK-001 to suppress bladder cancer cell growth by calculating the IC50 values.
The synthesized series of MJK chemical compounds have increased specificity for HDAC9 or HDAC4 isoforms. […] On the other hand, MJK-004 is highly efficient in blocking bladder cancer cell growth through regulation of HDAC4 isoform. MJK-006 and MJK-008 compounds have the potential to be developed as therapeutics for Crohn's Disease and other auto-immune diseases. […]

Data set [4] deals with UMUC9 bladder cancer cells. Nature of the data set: Cell viability assay (CellTiter Glo), UMUC9. Type of data set: cell-based. The following applies: for IC50: UM-UC-9. Here is the method:
as §1, §2, §3

The target in data set [5] is T1, HDAC4 (Homo sapiens, UniProt P56524).
T1 construct: purchased BPS Bioscience 50064
T1 sequence (P56524 whole entry): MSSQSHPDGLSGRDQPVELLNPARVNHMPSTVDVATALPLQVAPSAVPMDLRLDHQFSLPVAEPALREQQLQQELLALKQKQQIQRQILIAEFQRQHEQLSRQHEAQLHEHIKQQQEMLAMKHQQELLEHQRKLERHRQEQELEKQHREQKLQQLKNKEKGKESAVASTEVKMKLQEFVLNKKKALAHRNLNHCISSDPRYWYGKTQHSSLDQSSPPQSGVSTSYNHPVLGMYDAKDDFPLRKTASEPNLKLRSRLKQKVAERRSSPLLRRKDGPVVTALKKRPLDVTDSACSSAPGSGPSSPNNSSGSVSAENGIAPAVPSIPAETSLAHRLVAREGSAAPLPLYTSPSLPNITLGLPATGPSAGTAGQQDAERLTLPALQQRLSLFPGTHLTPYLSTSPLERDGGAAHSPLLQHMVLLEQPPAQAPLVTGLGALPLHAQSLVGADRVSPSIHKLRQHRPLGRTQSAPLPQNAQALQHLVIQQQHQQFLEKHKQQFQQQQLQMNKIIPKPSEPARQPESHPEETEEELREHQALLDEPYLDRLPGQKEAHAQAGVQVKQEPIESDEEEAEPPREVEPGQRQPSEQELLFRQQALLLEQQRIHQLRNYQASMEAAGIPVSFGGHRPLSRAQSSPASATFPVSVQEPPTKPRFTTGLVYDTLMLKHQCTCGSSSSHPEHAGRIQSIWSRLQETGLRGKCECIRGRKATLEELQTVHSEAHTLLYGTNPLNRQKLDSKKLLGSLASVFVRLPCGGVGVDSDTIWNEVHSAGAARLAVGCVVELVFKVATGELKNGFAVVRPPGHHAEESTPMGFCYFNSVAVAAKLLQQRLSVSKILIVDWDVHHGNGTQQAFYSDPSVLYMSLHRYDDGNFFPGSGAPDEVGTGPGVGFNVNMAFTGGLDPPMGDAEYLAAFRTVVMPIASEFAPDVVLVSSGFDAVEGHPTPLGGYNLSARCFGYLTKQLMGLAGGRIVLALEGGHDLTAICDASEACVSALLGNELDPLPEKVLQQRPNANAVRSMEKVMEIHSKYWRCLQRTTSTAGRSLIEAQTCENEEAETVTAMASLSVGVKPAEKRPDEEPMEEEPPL
Nature of the data set: Fluorogenic HDAC4 activity assay. Type of data set: biochemical. The following applies: fluorogenic assay kit, in words. Here is the method:
To measure the effects of MJK-001, -004, -006 and -008 on HDAC4 & 9 activity fluorogenic HDAC9 (#50069) and HDAC4 (#50064) assay kits (BPS Bioscience) were used. Briefly, these assays consist of two steps; in the first one the HDAC fluorometric substrate containing an acetylated lysine side chain is incubated with purified HDAC9. In the second step, the deacetylation sensitizes the substrate so subsequent treatment with the lysine developer produces a fluorophore that was measured by a fluorescence reader.

The nature of data set [6]: Water solubility of MJK compounds. Type of data set: physicochemical. An excerpt:
Solubility of MJK compounds: The development of an oral formulation for patients with auto-immune diseases, including Crohn's Disease, is preferential and less expensive, avoiding the need of hospitalization in comparison to the intracolonic (enema) administration. Thus, the water solubility and physical properties of the MJK compounds were examined. […] MJK-008 is the highest soluble MJK compound.

In data set [7] the test system is MIA PaCa-2 pancreatic cancer cell line. In words: Cell viability assay (CellTiter Glo), MIA PaCa-2. In kind it is cell-based. As to conditions: Homo sapiens, 120 h; MIA PaCa-2, 20 uM, day 5; read-out: % growth inhibition. On the procedure:
(§4) Pancreatic cancer cell lines (MIA PaCa-2 and CAPAN-2) were purchased from ATCC. MIA PaCa-2 were grown in DMEM and CAPAN-2 in McCoy's 5A (Gibco). Colon cancer cell lines (SW480 and HT-29) were purchased from ATCC. SW480 were grown in Leibovitz's L-15 (ATCC) and HT-29 in McCoy's 5A (Gibco). Lung cancer cell lines (NCI 460 and NCI 1975) were purchased from ATCC and grown in RPMI 1640 (Gibco). PC-3 prostate cancer cell line was purchased from ATCC and grown in F-12K (ATCC). Bladder cancer cell line 5637 was purchased from ATCC and RT-112 was purchased from Sigma-Aldrich and was grown in RPMI 1640 (Gibco). […] IL1B and TNFA mRNA levels were measured by qPCR analysis as described previously (Fang K et al. Am J Pathol, 188(3):586-99, 2018).
(§5) 1.8×10^3 cells/well were plated in quadruplicates in 96-well plate and treated with exogenously added MJK analogues 6 hours after plating. […] Cell growth was assessed 1, 3, 5 or 7 days after plating using the CellTiter Glo Luminescence Cell Viability Assay (Promega) according to manufacturer's protocol. For the experiments where the effect of combinatorial treatment of MJK-004 analogues with chemotherapy was assessed, treatment of cells with gemcitabine (10 nM) or 5-fluouracil (2000 nM) was performed one day after MJK-004 treatment and the cells were further treated with exogenously added MJK analogues 2 days later. […]
On the technique in general: Cellular ATP, detected with luciferase, serves as a proxy for viable cell number.

In data set [8] the test system is 5637 bladder cancer cell line. In words: Cell viability assay (CellTiter Glo), 5637. In kind it is cell-based. As to conditions: for IC50: 5637 cell growth. Here is the method:
Pancreatic cancer cell lines (MIA PaCa-2 and CAPAN-2) were purchased from ATCC. MIA PaCa-2 were grown in DMEM and CAPAN-2 in McCoy's 5A (Gibco). Colon cancer cell lines (SW480 and HT-29) were purchased from ATCC. SW480 were grown in Leibovitz's L-15 (ATCC) and HT-29 in McCoy's 5A (Gibco). Lung cancer cell lines (NCI 460 and NCI 1975) were purchased from ATCC and grown in RPMI 1640 (Gibco). PC-3 prostate cancer cell line was purchased from ATCC and grown in F-12K (ATCC). Bladder cancer cell line 5637 was purchased from ATCC and RT-112 was purchased from Sigma-Aldrich and was grown in RPMI 1640 (Gibco). Bladder cancer cell lines, UMUC-9, UMUC-15 and UMUC-7 were purchased from MD Anderson and were grown in EMEM (ATCC). Bladder cancer cell line J82 was purchased from ATCC and was grown in EMEM (ATCC). SW1710 and EJ28 bladder cancer cell lines were purchased from DSMZ and were grown in DMEM (ATCC) and RPMI-1640 (Gibco), respectively. Bladder cancer cell line T24 was purchased from ATCC and grown in McCoy's 5A (Gibco). Bladder cancer cell line BC-3C was purchased from DSMZ and was grown in McCoy's 5A (Gibco). […] IL1B and TNFA mRNA levels were measured by qPCR analysis as described previously (Fang K et al. Am J Pathol, 188(3):586-99, 2018).
as §2, with “For the experiments performed to calculate the IC50s of HDAC9 analogues, a secondary treatment of exogenously added MJK analogues was performed 2 days later.” left out, “units)±S.D. […]” for “units)±S.D.”

Data set [9] deals with NCI-1975 lung cancer cell line. In words: Cell viability assay (CellTiter Glo), NCI-1975. Type of data set: cell-based. The following applies: 120 h; NCI-1975, 20 uM, day 5; read-out: % growth inhibition. On the procedure: as §4, §5
Data set [10] concerns HT-29 colon cancer cell line. In words: Cell viability assay (CellTiter Glo), HT-29. In kind it is cell-based. The following applies: Homo sapiens, 120 h; HT-29, 20 uM, day 5; read-out: % growth inhibition. On the procedure:
as §4, §5

Data set [11] deals with EJ28 bladder cancer cell line. Nature of the data set: Cell viability assay (CellTiter Glo), EJ28. Type of data set: cell-based. The following applies: Homo sapiens, EJ-28; EJ28 cell growth. Here is the method:
as §4, §5

Data set [12] concerns BC3C bladder cancer cell line. Nature of the data set: Cell viability assay (CellTiter Glo), BC3C. Type of data set: cell-based. As to conditions: BC3C cell growth. On the procedure: as §4, §5
[13] abbreviates: Homo sapiens, RT-112 cell growth.

The structures appear in SMILES notation. Like-named read-outs stand apart in the source and are kept apart here.

Regarding `Cl.Cn1c(/C=C/C(=O)NO)ccc1/C=C/C(=O)c1cccnc1` [MJK008, (E)-N-Hydroxy-3-(1-methyl-5-((E)-3-oxo-3-(pyridin-3-yl)prop-1-en-1-yl)-1H-pyrrol-2-yl)ac-rylamide hydrochloride], the “IC50 (uM) values” in [1] (RT-112 cell growth) and in [4] (UMUC9 cell growth) was “ns” each time. The “IL1B and TNFA mRNA levels (inflammatory response)” value in [2] is “reduced substantially the inflammatory response”. Further, the “effect on bladder cancer cell growth” value in [3] is given as “did not have any effect”. The “HDAC4 activity / specificity” value in data set [5] is recorded as “decreased HDAC4 specificity”. Also, in data set [6] (hydrochloride), the Solubility score result is given as “highest solubility”.

For the compound `Cn1c(/C=C/C(=O)NO)ccc1/C=C/C(=O)c1cccc(F)c1` [MJK001, (E)-3-(5-((E)-3-(3-Fluorophenyl)-3-oxoprop-1-en-1-yl)-1-methyl-1H-pyrrol-2-yl)-N-hydro-xyacrylamide], the inhibition at 20 µM in data set [7] amounted to 0%; in data set [8] (120 h, 5637, 20 uM, day 5, read-out: % growth inhibition), 42.1%; in [1] (Homo sapiens, RT-112, 120 h, RT112, 20 uM, day 5, read-out: % growth inhibition), 51%; in [9], 11.8%; in data set [10] it was 19.7%. For the same compound, the IC50 was found to be 9.15 µM in data set [1] (setting [13]) and 7.1 µM in data set [4] (UMUC9 cell growth). Further, the “HDAC4 activity / specificity” value in data set [5] was “partially blocks”.

`Cn1c(/C=C/C(=O)NO)ccc1/C=C/C(=O)c1cccs1` [MJK004, (E)-N-hydroxy-3-(1-methyl-5-((E)-3-oxo-3-(thiophen-2-yl)prop-1-en-1-yl)-1H-pyrrol-2-yl)acrylamide]: the IC50 in [8] was 7.58 µM; in data set [1] (setting [13]), 2.37 µM; in data set [4] (UMUC9 cell growth), 3.97 µM; in [11], 6.62 µM; in [12], 5.85 µM. Further, the “cell growth, monotherapy” value in [1] (RT-112, days 4 & 5) was “suppressed bladder cancer growth in both cell lines as a monotherapy”; in data set [4] (UMUC9, days 4 & 5), “suppressed bladder cancer growth in both cell lines as a monotherapy”. Also, the “cell growth, combination with gemcitabine” value was “increased gemcitabine's efficacy” in [1] (RT-112, gemcitabine 10 nM, days 4 & 5) and “increased gemcitabine's efficacy” in data set [4] (UMUC9, gemcitabine 10 nM, days 4 & 5). Further, the “effect on bladder cancer cell growth” value in data set [3] is given as “highest efficacy”. For the same compound, in data set [5], the “HDAC4 activity / specificity” value is recorded as “high specificity for HDAC4”.

Consider `Cn1c(/C=C/C(=O)NO)ccc1/C=C/C(=O)c1cccnc1` [MJK006, (E)-N-hydroxy-3-(1-methyl-5-((E)-3-oxo-3-(pyridin-3-yl)prop-1-en-1-yl)-1H-pyrrol-2-yl)acrylamide], for which the concentration for half-maximal inhibition (IC50) in data set [8] was determined as 1740 µM; in data set [1] (setting [13]), 38.3 µM; in data set [4] (UMUC9 cell growth) it was 19.8 µM; in data set [11], 352 µM; in data set [12], 36.4 µM. Moreover, the “effect on bladder cancer cell growth” value in data set [3] was “did not have any effect”. The “HDAC4 activity / specificity” value in data set [5] is “decreased HDAC4 specificity”. Further, the Solubility score entry in [6] is recorded as “worst solubility”.

The record behind these values is patent publication US11952362B2, “Compositions and methods for treating epigenetic disease” (The Regents of the University of California, priority 2018, dated 2024).
